# Data: paper PMC9090415, “Discovery of small molecule inhibitors of Plasmodium falciparum apicoplast DNA polymerase” (Journal of Enzyme Inhibition and Medicinal Chemistry, 2022)
# Columns and labels:
# [1] = biological target: T1, P. berghei apicoplast DNA polymerase (Pb-apPOL) (Plasmodium berghei, UniProt A0A509ALK1); test: In vitro DNA polymerase inhibition assay, Pb-apPOL; assay type: biochemical; details: Table 2
# T1 sequence (A0A509ALK1 1182-1809): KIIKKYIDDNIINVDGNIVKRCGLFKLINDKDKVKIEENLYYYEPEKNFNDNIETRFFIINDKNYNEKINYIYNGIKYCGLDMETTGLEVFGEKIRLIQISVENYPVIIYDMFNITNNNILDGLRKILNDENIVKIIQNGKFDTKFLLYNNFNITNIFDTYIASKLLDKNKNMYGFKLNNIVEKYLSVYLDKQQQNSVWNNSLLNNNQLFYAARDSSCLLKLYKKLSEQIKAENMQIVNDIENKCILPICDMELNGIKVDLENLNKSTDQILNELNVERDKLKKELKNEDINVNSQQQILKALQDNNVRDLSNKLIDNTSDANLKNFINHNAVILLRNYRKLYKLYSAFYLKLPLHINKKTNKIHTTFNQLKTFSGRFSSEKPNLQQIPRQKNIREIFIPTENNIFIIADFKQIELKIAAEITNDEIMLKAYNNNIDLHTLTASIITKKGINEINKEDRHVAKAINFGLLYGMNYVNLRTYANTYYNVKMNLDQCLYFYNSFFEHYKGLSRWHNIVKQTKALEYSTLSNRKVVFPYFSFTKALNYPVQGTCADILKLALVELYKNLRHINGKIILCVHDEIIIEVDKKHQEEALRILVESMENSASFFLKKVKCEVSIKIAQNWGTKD
# Description: (§1) Codon-optimized, exonuclease-deficient Pf-apPOL was overexpressed in E. coli BL21 (DE3) and purified as described. The protein was dialysed against two, 1-liter changes of 20 mM Tris-HCl (pH 8.0), 400 mM NaCl, and 20% glycerol. Plasmodium bergei and Babesia bovis apPOLs (Pb-apPOL and Bb-apPOL, respectively) were codon-optimized, expressed, and purified as for Pf-apPOL[15]. Bacteriophage T4 DNA polymerase was purified as described. The DNA oligonucleotides used to make the high-throughput substrate were obtained from Integrated DNA Technologies. Deoxynucleotides were purchased from Strategene. All other materials came from Fisher Scientific.
# The HT assay employs a molecular beacon, a stem-loop DNA template with a Cy3 dye and the Black Hole Quencher on the 3′ and 5′ ends of the DNA, respectively. Pf-apPOL concentration is based on a calculated absorptivity of ε280 = 56750 M^−1 cm^−1. Reactions were carried out at 25 °C, using Corning 3575 […] (well-volume, 20 µL). Assays testing for compound inhibition composed of reaction buffer (pH 7.9 in 50 mM potassium acetate, 20 mM Tris-acetate and 10 mM magnesium acetate), Pf-apPOL (20 nM), DNA substrate (20 nM), dNTPs (6 µM), and compound (10 µM in DMSO). The DNA and nucleotide substrates (dNTPs) were at concentrations of 20 nM and 6 µM, respectively, in the assay. Pf-apPOL was incubated in the reaction buffer with dNTPs and the compound of interest (10 µM, in the assay) at 25 °C for 10 min. The DNA substrate was then added and the reaction was allowed to proceed for 90 min at 25 °C.
# In the above, Min is the average of fluorescence emission of the negative controls (substrate only), Max the average fluorescence emission from the positive controls (enzyme + substrate), and Test the emission from the assays in the presence of compounds (enzyme + compound + substrates). Dose-response confirmation assays were performed under similar conditions as the primary screen, but monitoring fluorescence at 10, 90, and 180 min. Tested concentrations of compounds were 2.5, 10, 20, 40, and 80 µM. The IC50 of each compound was determined using Equation (2): (2) […] Vmax/(1+ (I/IC50)^n)
# We tested the ability of the 102 compounds to kill P. falciparum parasites cultured in human red blood cells. Due to the number of compounds, we used a single inhibitor concentration of 20 µM and performed experiments in triplicate. These single-dose assays identified 9 compounds that inhibited parasite growth by more than 50%. These compounds were then tested in a dose-response format against chloroquine resistant P. falciparum parasites (Dd2) and the resulting data were fit to a sigmoidal growth inhibition curve to determine EC50 values (Figure 5, Table 2). […] Inhibition of Pb-apPOL is a desired feature because it is likely that future in vivo studies will be performed in the mouse model for Malaria. […] The in vitro polymerase assays identified 5 compounds that were potent inhibitors of all three apicoplast polymerases and a single compound that inhibited Pf-apPOL and Bb-apPOL but not Pb-apPOL (Table 2). Finally, to determine if the compounds were killing the parasites solely via apicoplast disruption, the dose-response curves were also performed with 1 mM isopentylpyrophosphate (IPP) in the growth media (Table 2). […] At this time, it is unclear what the non-apicoplast target(s) may be. One intriguing possibility is that these compounds may be targeting both the apicoplast and the mitochondrial DNA polymerases. […]
# [2] = biological target: Babesia bovis apicoplast DNA polymerase (Bb-apPOL); test: In vitro DNA polymerase inhibition assay, Bb-apPOL; assay type: biochemical; details: Table 2
# Description: as §1
# We tested the ability of the 102 compounds to kill P. falciparum parasites cultured in human red blood cells. Due to the number of compounds, we used a single inhibitor concentration of 20 µM and performed experiments in triplicate. […] These compounds were then tested in a dose-response format against chloroquine resistant P. falciparum parasites (Dd2) and the resulting data were fit to a sigmoidal growth inhibition curve to determine EC50 values (Figure 5, Table 2). […] Finally, to determine if the compounds were killing the parasites solely via apicoplast disruption, the dose-response curves were also performed with 1 mM isopentylpyrophosphate (IPP) in the growth media (Table 2). […] Very little is known regarding mitochondrial DNA replication in P. falciparum; however, signal sequence identification algorithms have predicted that the other bacterial A-family DNA polymerase residing in P. falciparum is targeted to the mitochondria (PF3D7_0625300)[29]. […] We are currently in the process of cloning and expressing this putative mitochondrial DNA polymerase to determine the effect of these compounds on its activity.
SMILES,IC50 [1] [µM],IC50 [2] [µM]
O=C(O)c1ccc(-c2nc3cc(-c4ccc5nc(-c6ccc(C(=O)O)cc6)[nH]c5c4)ccc3[nH]2)cc1 [Molecule 1],7.1 ± 0.6,3.7 ± 0.2
CCOc1nc2cccc(C(=O)OC(C)OC(=O)OC3CCCCC3)c2n1Cc1ccc(-c2ccccc2-c2nnn[nH]2)cc1 (centres unmarked) [Molecule 94],13.9 ± 1.6,30 ± 3
COc1ccc(CNC(=O)Cn2nc3c(c2NC(=O)Cc2cccs2)CSC3)cc1 [Molecule 55],51.9 ± 3.5,1.5 ± 1
OC(C#Cc1ccccc1)c1ccco1 (centres unmarked) [Molecule 95],8.6 ± 0.7,2.5 ± 0.2
